Measurements: article PMC10850954, “HDAC6/aggresome processing pathway importance for inflammasome formation is context-dependent” (The Journal of Biological Chemistry, 2024)
Entries after “also recorded” stand apart in the source; their conditions may differ.

Tested on: U937-pyrin cells
Assay: Cell viability (resazurin) of U937-pyrin cells, pyroptosis
Assay type: cell-based, human
Conditions: BAA473 activation, resazurin assay
Experimental: Cell viability of PBMCs and U937 cells was checked with PrestoBlue HS Cell Viability Reagent (Invitrogen # P50200) according to the manufacturer’s instructions. After incubation for 1 to 2 h, fluorescence was determined with a PheraStar plate reader under Ex/Em = 540/590 nm.
Supplementary file mmc1.pdf: Supporting Figure S1 BMDM cells were primed by LPS (1 μg/ml) for 4 hrs and then challenged with 20 μM nigericin. 50 μl supernatant was collected every 15 min (up to 90 min) and mIL-1β level was determined by HTRF assay. […] Supporting Figure S2: A, immunoblot of HDAC1, HDAC2 and HDAC6 protein level in WT THP-1 cells vs DMSO or dTAG treated F10-FKBP^F36V THP-1 cells. DARPin F10 was detected by anti-HA antibody. B, FKBP^F36V THP-1 cells were established for evaluating the possible effect of dTAG on IL-1β release. Cells were first treated with PMA (0.5 μM) for 3 hr, then medium was changed and vehicle or dTAG was added (1 μM), followed by 20 μM nigericin for 3 hr. Supporting Figure S3: A, CTG cell viability assay to analyze degrader XY-07-035 toxicity in HEK293T, Jurkat and U937 cells. Cells were treated with different concentrations of the degrader, and cell viability determined by CTG assay was normalized to the non-treated group. […] Supporting Figure S4: Cell viability was measured by resazurin assay, and fluorescence intensity was a representative of the viability.

SMILES | cell viability / protection from pyroptosis
CN1C(=O)CCC(N2C(=O)c3cccc(NCCCC(=O)N(C)c4ccc(NC(=O)CCCCCCC(=O)NO)cc4)c3C2=O)C1=O (centres unmarked) [XY-07-191] | No significant difference
CN(C(=O)CCCNc1cccc2c1C(=O)N(C1CCC(=O)NC1=O)C2=O)c1ccc(NC(=O)CCCCCCC(=O)NO)cc1 (centres unmarked) [XY-07-35] | did not protect cells from pyroptosis; also recorded: No significant difference
